Experiment: Human HepG2 cell viability assay in 384 well format
Type: toxicity, cell-based
Parameters: dose 125 nL, time 70.5 hour; cytotoxicity at 70.5 h: concentration not given beside the values
Settings: HepG2 cells, read-out: Inhibition

Structure (SMILES)	cytotoxicity at 70.5 h [%]
CC(C)c1noc(CN2CCN(C(=O)c3cc(Cl)ccc3F)CC2)n1	-8.7
O=c1[nH]c(=O)n(CC(O)c2ccc(F)cc2F)cc1Cl (centres undefined)	0.374
Cc1cc(C)cc(CN2CCN(Cc3cc(C#N)n(C)c3)CC2=O)c1	-6.92
COCCOc1ccc(NC(=O)N(CCCO)CC(C)(C)C)cn1	21.2
Cc1nnc2n1CCN(C(=O)c1cc(Cl)c(Br)[nH]1)C2	-2.93
CCN1CCCN(c2ccc(-n3ccc(C)n3)nn2)CC1	10.6
Cc1nc(-c2ccccc2)ccc1C(=O)N1CCN(CCO)CC1	-1.89
CCN(CC)C(=O)N1CCOCC1c1c(C)nn(C)c1C (centres undefined)	-10.5
CC(C)c1n[nH]c(C2CN(C(=O)CCn3ccccc3=O)CCO2)n1 (centres undefined)	-2.51
CN(CC(O)C(F)(F)F)C(=O)Nc1cccc(C(F)F)c1 (centres undefined)	-7.43
O=C(CCCN1CCCCC1)N[C@H](C(=O)O)c1cccc(F)c1F	-6.96
COc1ncnc(N)c1CNCCOc1ccccc1Cl	-5.86
CCNc1ncc(CN2C[C@@H](C(=O)O)[C@H](C3CC3)C2)cn1	-7.25
CO[C@H]1CN(Cc2cc(F)ccc2F)CC[C@@]12CCCO2	-2.25
Cn1cc(NC(=O)N2CCC(OCc3ccccc3)CC2)ccc1=O	-9.18
CC(C)(C)C(O)CN1CCN(CCOCC(F)(F)F)CC1 (centres undefined)	-9.97
COCc1cc(O)nc(C2CCCN(Cc3cc(OC)ccc3F)C2)n1 (centres undefined)	-4.84
CCOc1ccc(OCc2nc3c(c(=O)[nH]2)CCNC3)cc1	-13.5
Cc1cnn(CC2CN(Cc3ccccn3)CCO2)c1 (centres undefined)	-5.81
COCC(C)NCc1nc(-c2ccc(C)cc2)c(-c2ccccn2)[nH]1 (centres undefined)	-1.81
Cc1nc(CN2CCCC(NCc3ccsc3)C2)no1 (centres undefined)	1.36
Cn1cccc1-c1cc(C(=O)NCCCc2csc(N)n2)[nH]n1	18.4
Cc1ccc(CN2CCN(Cc3ccncc3)[C@@H]3CS(=O)(=O)C[C@@H]32)cc1	-7.92

Structure (SMILES)	cytotoxicity at 70.5 h [%]
Cc1cc(O)c(OCC(=O)Nc2nccs2)cn1	-21.7
CCc1nnc2n1CCN(C(=O)c1ccc3[nH]cnc3c1)C2	4.85
OCc1cc(C2CCCN2c2ncccn2)n[nH]1 (centres undefined)	0.468
Cc1onc(N)c1S(=O)(=O)N1CCCCC1C (centres undefined)	-2.67
N#CC1COCCN1S(=O)(=O)c1ccc2ccccc2c1 (centres undefined)	-1.81
CCOC(C)c1nc(Cn2cccn2)cs1 (centres undefined)	-8.39
Cc1cnn(CC2CCCN2C(=O)CCc2ccncc2)c1 (centres undefined)	-1.24
CC(=O)c1cc(CC(=O)N2CCCC2c2nc(C(C)C)no2)cs1 (centres undefined)	-3.24
O=S(=O)(C1CC1)N1CCC2(CC1)CC(Oc1ccccn1)CO2 (centres undefined)	2.03
O=C1NCCN1C1CCN(Cc2nc(-c3ccccc3)no2)CC1	13.9
Cc1cc(=O)n(C)cc1NC(=O)Cc1cccc(Cl)c1	-0.253
N#CCCCOc1cccc(CN2CCCC2c2ccc[nH]2)c1 (centres undefined)	1.38
O=C(NCCCNCC1CNc2ccnn2C1)c1ccccc1 (centres undefined)	-12
CS(=O)(=O)N1Cc2nccn2CC(CN2CCCC2=O)C1 (centres undefined)	1.5
CCc1ncc(CN(C)C(=O)Nc2cccnc2N2CCCC2)s1	0.712
O=C(NC1CC1)c1cc(C(F)(F)F)cc(C(=O)NC2CC2)n1	23
Cc1ccc(C(O)CN2CCN(Cc3nccn3C)CC2)cc1C (centres undefined)	2
c1cc(-c2cnc(NC3CC3)nc2[C@@H]2CCCO2)ccn1	-8.62
COc1cc(C)cc(C(C(=O)O)N(C)Cc2ccncc2C)c1OC (centres undefined)	4.18
c1cc(CN2CCC3(CC2)COC(COCC2CC2)C3)ccn1 (centres undefined)	-16.7
CC(C)c1nccn1CCCNC(=O)c1ccc(-c2cncnc2)nc1	-9.84
O=C1N(CCCc2ccccc2)CCCC1(O)CNCc1ccccc1 (centres undefined)	-10.4
CCC(CO)N(Cc1cccc(-n2cccn2)c1)Cc1cccs1 (centres undefined)	-4.44

Structure (SMILES)	cytotoxicity at 70.5 h [%]
COCCN(CCOC)C(=O)c1cccc(Cn2nc(C)cc2C)c1	0.115
COc1c(CNCc2ccc(CN(C)C)cc2)c(C(C)C)nn1C	2.15
O=C(NCCN1CCCCCC1=O)c1ccc(=O)[nH]n1	2.56
Nc1nc2c(c(N3CCCC(c4nnc5ccccn45)C3)n1)CCNC2 (centres undefined)	-2.11
CCCS(=O)(=O)N1CCN(CC(F)(F)F)CC1	-5.82
O=C(CCNS(=O)(=O)c1ccc(Cl)cc1)NCc1ccoc1	-5.84
COCc1cncc2c1CCN(C(=O)c1ccsc1)C2	9.92
CCOCc1nc2c(c(N3CCN4CCCC4C3)n1)CCNCC2 (centres undefined)	-13.6
CN(C)C(=O)N1CCC[C@]2(C(=O)N(C)C)CN(c3ccccn3)C[C@@H]2C1	-10.5
Cc1n[nH]c(C)c1NC(=O)CN1CCCC1Cn1cncn1 (centres undefined)	-0.918
COCC(=O)N1CCC2(CCC2N(C)Cc2ccco2)CC1 (centres undefined)	3.06
COCCc1ncc(CN2CCC3(CCCN(CC4CC4)C3)C2)cn1 (centres undefined)	0.629
Cn1ccnc1N1CCN(C(=O)Cc2ccc(Cl)cc2)CC1	-1.94
CC(C)(C)c1cc(C[C@H]2CNCC[C@H]2CC(=O)NC2CCCCC2)no1	2.18
N#Cc1cccc(OCC(=O)N(Cc2ccncc2)C2CC2)c1	-10.3
Cc1cnc(N2CC[C@@H](N3CCOCC3)[C@@H]2Cc2ccncc2)nc1	-1.98
O=C(NCC1CCCO1)c1nc2c(s1)CCCN2C(=O)C1CC1 (centres undefined)	-9.75
COc1cccc(CC(=O)N2CCCC2c2nc(C)c(F)c(O)n2)c1 (centres undefined)	-1.47
COCC(=O)NCc1cc(=O)n2c(n1)CN(CC1CCOC1)CCC2 (centres undefined)	15.2
CC(C)NC(=O)N1CC[C@@H]2CN(Cc3cccc(Cl)c3)S(=O)(=O)[C@@H]2CC1	27
CNC(=O)[C@H]1C[C@@H]2CN(C(=O)c3cncc(C)c3)C[C@@H]2N1C	-16.6
O=c1[nH]c(C2CCOC2)nc2cc(F)c(F)cc12 (centres undefined)	-10.3
CCN1CCC(CC(=O)N(C)C(C)c2cncs2)CC1 (centres undefined)	-1.72

Structure (SMILES)	cytotoxicity at 70.5 h [%]
Cc1ccsc1-c1nnc(SCC(=O)O)n1C(C)c1ccccc1 (centres undefined)	-5.54
CN(Cc1cc(C(C)(C)C)n[nH]1)Cc1c[nH]nc1-c1ccc(F)cc1	-4.87
CN(Cc1n[nH]c(=O)n1Cc1cccs1)S(C)(=O)=O	-0.816
COc1cccc(CN(C)CC2=Nc3ccccc3S(=O)(=O)N2)c1	-8.56
COCCN1CC(c2nc(CSC)no2)CCC1=O (centres undefined)	2.97
CC(C)c1ncc(CN2C[C@@H](CN3CCCC3)[C@@H](CO)C2)cn1	0.637
Cc1n[nH]c(C)c1NC(=O)CN1CCCC1c1c(C)nn(C)c1C (centres undefined)	1.54
Cc1cc(C(=O)NCc2cccn2C)nn1C	15.6
CCNc1cc2c(nn1)CCN(C(=O)c1cc(C)n(C3CC3)c1C)C2	-0.806
CCN(CC)S(=O)(=O)c1ccc(CNC(=O)N2CCC(C#N)CC2)cc1	-6.61
Cc1cc(C(=O)N2CCCC3(COCCN(c4ncccn4)C3)C2)[nH]n1 (centres undefined)	-6.04
Cc1nnc(N2CCN(C(=O)NC3CC3)CC2)c(C(N)=O)c1C	-15.7
COCC1CN(Cc2ccc(C)o2)Cc2cnn(CC3CCOCC3)c21 (centres undefined)	6.49
CC(=O)N(C)CC(=O)Nc1cnc(-n2ccnc2C)nc1	27.9
CC(=O)N1CCCC2(CCN(Cc3ccc(Cl)c(F)c3)C2)C1 (centres undefined)	-3.79
CC(C)N(C)Cc1cncc2c1CCN(CC1CC1)C2	15.2
CC(C)c1nccn1CCCNC(=O)c1ccc(-c2cnn(C)c2)nc1	-5.24
CC(C)(C)c1csc(CCNC(=O)[C@H](c2ccccc2)n2cnnn2)n1	-5.57
O=C1CCCC2=C1C(c1cc(Cl)ccc1F)Nc1nonc1N2 (centres undefined)	9.69
Cn1cc(Br)c(=O)c(NS(=O)(=O)c2ccc(Cl)cc2)c1	-18.4
O=C(CCc1ccco1)N1CCC(Nc2cccnn2)CC1	1.07
Cc1[nH]ncc1CCCNC(=O)N1CCC(CC(N)=O)CC1	-0.905
O=C(Cc1ccn[nH]1)Nc1cncc(Br)c1O	-2.7

Structure (SMILES)	cytotoxicity at 70.5 h [%]
O=c1[nH]c2c(-c3ccccn3)nsc2c(=O)n1CC1CC1	-14.6
Cc1nccn1C1CCCN(C(=O)c2cccc3c2OCO3)C1 (centres undefined)	-9.12
Cc1nn(C)c(C)c1-c1cncc(C2CCN(S(C)(=O)=O)CC2)n1	-19.6
CC(OCC1CC1)C(=O)NCCC(=O)Nc1ccccn1 (centres undefined)	-7.55
CCN1CCCC1CN(Cc1ccon1)CC1CCN(CCOC)CC1 (centres undefined)	-9.79
COc1ccc2nnc(CCC(=O)Nc3nc4c(s3)CCCC4)n2n1	-11.9
CCOc1ccc(NC(=O)Nc2cnc(N3CCOCC3)nc2)cc1	3.88
O=c1oc(-c2ccc(F)cc2)nn1CN1CCN(CC2CC2)CC1	-21.3
COCC(=O)NC(c1ccccc1)c1ccc2c(c1)CCCO2 (centres undefined)	-16.4
CN(C)c1cc(CNC(=O)Nc2cccnc2N2CCCC2)ccn1	-2.03
CN1C(=O)C(c2ccccc2)CC12CCN(CCOCCO)CC2 (centres undefined)	3.55
CC(C)n1[nH]c(=O)c2c1NC(=O)CC2c1cccnc1 (centres undefined)	9.01
CNS(=O)(=O)c1ccc(CNC(=O)C2CCCO2)cc1 (centres undefined)	27.2
NC(=O)CC1CCN(C(=O)NCCc2ccc(Cl)s2)CC1	-4.12
O=C(CN1CC(c2nc(C3CC3)no2)C1)N1CCOCC1	-17.5
CCN(CC)C(=O)[C@@H]1C[C@H](n2cc(-c3cccc(OC)c3)nn2)CN1	-3.79
O=C(c1cccc(F)c1)N1CC[C@H]2[C@H]1CCN2CC1CCOCC1	-6.77
O=C(c1cnc(-c2ccco2)s1)N1CCOc2ncccc21	-1.16
CN(C)c1ccc(C(=O)N2CCCC2c2ccc(Cl)cc2)nn1 (centres undefined)	-11.3
COc1ccc(S(=O)(=O)NC(=O)COc2ccc3c(c2)CCC3)cc1	17.6
O=C(CCn1cc(Cl)cn1)N1CCC2(CC1)[C@H](O)C[C@@H]2OCCO	-1.08
Cc1nc(-c2ccccc2)nc2c1CCN(Cc1nccn1C)CC2	-10.4
